Data from US9833497B2, “Human originated EGF domain proteins and use of the same” (CHENGDU SOURCEBIO LIMITED-LIABILITY COMPANY, priority 2013, dated 2017).

Key:
Assay type in all cases: cell-based
Enterobacter cloacae = experiment: MIC against Gram-negative bacteria: Enterobacter cloacae; settings: 5×10^5 CFU/mL, 10 h cultivation at 37° C.; for MIC against E. cloacae: Enterobacter cloacae
How it was run: (§1)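 LB broth cultures at McFarland 0.5, spun down, resuspended, diluted to 5×10^5 CFU/mL final. Two-fold serial dilutions of purified human EGF domain proteins, triplicate. 37° C, 175 rpm shaking. Endpoint: no visible growth.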

E. coli DH5α = experiment: Antibacterial activity: MIC and growth curve against E. coli DH5α in 96-well plate; settings: minimal inhibitory concentration against E. coli DH5α; 96-well plate, 5×10^5 CFU/mL, 37° C., judged after 8 h
How it was run: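 Log-phase DH5α (OD600 about 0.5, 37° C, 185 rpm in LB) was pelleted, resuspended in fresh LB and seeded at 5×10^5 CFU/mL with recombinant protein at 50, 25 and 12.5 μg/mL (two-fold series), in triplicate. Plates were shaken at 175 rpm, 37° C, and OD600 was read every 30 min. MIC was the lowest concentration with no growth.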

Citrobacter diversus = experiment: MIC against Gram-negative bacteria: Citrobacter diversus; settings: 5×10^5 CFU/mL, 10 h cultivation at 37° C.; for MIC against C. diversus: Citrobacter diversus
How it was run: as §1

Serratia marcescens = experiment: MIC against Gram-negative bacteria: Serratia marcescens; settings: 5×10^5 CFU/mL, 10 h cultivation at 37° C.; for MIC against S. marcescens: Serratia marcescens
How it was run: as §1

Moraxella catarrhalis = experiment: MIC against Gram-negative bacteria: Moraxella catarrhalis; settings: 5×10^5 CFU/mL, 10 h cultivation at 37° C.; for MIC against M. catarrhalis: Moraxella catarrhalis
How it was run: as §1

Pseudomonas aeruginosa = experiment: MIC against Gram-negative bacteria: Pseudomonas aeruginosa; settings: 5×10^5 CFU/mL, 10 h cultivation at 37° C.; for MIC against P. aeruginosa: Pseudomonas aeruginosa
How it was run: as §1

E. coli BL21 = experiment: MIC against Gram-negative bacteria: E. coli BL21; settings: E. coli BL21, 5×10^5 CFU/mL, 10 h cultivation at 37° C.
How it was run: as §1

Proteus mirabilis = experiment: MIC against Gram-negative bacteria: Proteus mirabilis; settings: 5×10^5 CFU/mL, 10 h cultivation at 37° C.; for MIC against P. mirabilis: Proteus mirabilis
How it was run: as §1

Proteus vulgaris = experiment: MIC against Gram-negative bacteria: Proteus vulgaris; settings: 5×10^5 CFU/mL, 10 h cultivation at 37° C.; for MIC against P. vulgaris: Proteus vulgaris
How it was run: as §1

Klebsiella pneumonia = experiment: MIC against Gram-negative bacteria: Klebsiella pneumonia; settings: 5×10^5 CFU/mL, 10 h cultivation at 37° C.; for MIC against K. pneumonia: Klebsiella pneumonia
How it was run: as §1

Aeromonas hydrophila = experiment: MIC against Gram-negative bacteria: Aeromonas hydrophila; settings: 5×10^5 CFU/mL, 10 h cultivation at 37° C.; for MIC against A. hydrophila: Aeromonas hydrophila
How it was run: as §1

Row | Substance | MIC against E. cloacae (Enterobacter cloacae) | MIC (E. coli DH5α) | MIC against C. diversus (Citrobacter diversus) | MIC against S. marcescens (Serratia marcescens) | MIC against M. catarrhalis (Moraxella catarrhalis) | MIC against P. aeruginosa (Pseudomonas aeruginosa) | MIC against E. coli BL21 (E. coli BL21) | MIC against P. mirabilis (Proteus mirabilis) | MIC against P. vulgaris (Proteus vulgaris) | MIC against K. pneumonia (Klebsiella pneumonia) | MIC (μg/mL) E. cloacae (Enterobacter cloacae; E. cloacae) | MIC (μg/mL) C. diversus (Citrobacter diversus; C. diversus) | MIC (μg/mL) S. marcescens (Serratia marcescens; S. marcescens) | MIC (μg/mL) M. catarrhalis (Moraxella catarrhalis; M. catarrhalis) | MIC (μg/mL) P. aeruginosa (Pseudomonas aeruginosa; P. aeruginosa) | MIC (μg/mL) E. coli BL21 (E. coli BL21) | MIC (μg/mL) P. mirabilis (Proteus mirabilis; P. mirabilis) | MIC (μg/mL) P. vulgaris (Proteus vulgaris; P. vulgaris) | MIC (μg/mL) K. pneumonia (Klebsiella pneumonia; K. pneumonia) | MIC (μg/mL) A. hydrophila (Aeromonas hydrophila; A. hydrophila) | other results
1 | PRT1414 (EVDCMDPTCSGRGVCVRGECHCSVGWGGTNCE; listed as Homo sapiens) | 50 µg/mL | 50 µg/mL | 12.5 µg/mL | 25 µg/mL | 50 µg/mL | 50 µg/mL | 12.5 µg/mL | 12.5 µg/mL | 12.5 µg/mL | 12.5 µg/mL | – | – | – | – | – | – | – | – | – | – | MIC against A. hydrophila (Aeromonas hydrophila): 12.5 µg/mL
2 | PRT430 (DIDECAQGAGILCTFRCLNVPGSYQCACPEQGYTMTANGRSCK; listed as Homo sapiens) | – | 12.5 µg/mL | – | – | – | – | – | – | – | – | – | – | – | – | – | – | – | – | – | – | MIC (Enterobacter cloacae; E. cloacae): 12.5 µg/mL; MIC (Citrobacter diversus; C. diversus): 50 µg/mL; MIC (Serratia marcescens; S. marcescens): 12.5 µg/mL; MIC (Moraxella catarrhalis; M. catarrhalis): 25 µg/mL; MIC (Pseudomonas aeruginosa; P. aeruginosa): 50 µg/mL; MIC (E. coli BL21): 25 µg/mL; MIC (Proteus mirabilis; P. mirabilis): 12.5 µg/mL; MIC (Proteus vulgaris; P. vulgaris): 50 µg/mL; MIC (Klebsiella pneumonia; K. pneumonia): 25 µg/mL; MIC (Aeromonas hydrophila; A. hydrophila): 25 µg/mL
3 | PRT839 (DVDECRLGLARCHPRATCLNTPLSYECHCQRGYQGDGISHCN; listed as Homo sapiens) | – | 12.5 µg/mL | – | – | – | – | – | – | – | – | 12.5 µg/mL | 25 µg/mL | 50 µg/mL | 50 µg/mL | 12.5 µg/mL | 25 µg/mL | 25 µg/mL | 12.5 µg/mL | 12.5 µg/mL | 12.5 µg/mL | –
4 | PRT189 (SIDACASSPCFNRATCYTDLSTDTFVCNCPYGFVGSRCE; listed as Homo sapiens) | – | 25 µg/mL | – | – | – | – | – | – | – | – | 25 µg/mL | 25 µg/mL | 25 µg/mL | 12.5 µg/mL | 25 µg/mL | 12.5 µg/mL | 25 µg/mL | 50 µg/mL | 12.5 µg/mL | 50 µg/mL | –
5 | PRT1400 (VCSVDCGTHGVCIGGACRCEEGWTGAACD; listed as Homo sapiens) | 25 µg/mL | 50 µg/mL | 12.5 µg/mL | 25 µg/mL | 50 µg/mL | 50 µg/mL | 12.5 µg/mL | 12.5 µg/mL | 12.5 µg/mL | 12.5 µg/mL | – | – | – | – | – | – | – | – | – | – | MIC against A. hydrophila (Aeromonas hydrophila): 50 µg/mL
6 | PRT887 (LNDACISNPCNEGSNCDTNPVNGKAICTCPSGYTGPACS; listed as Homo sapiens) | – | 12.5 µg/mL | – | – | – | – | – | – | – | – | 50 µg/mL | 12.5 µg/mL | 50 µg/mL | 25 µg/mL | 12.5 µg/mL | 25 µg/mL | 50 µg/mL | 12.5 µg/mL | 25 µg/mL | 25 µg/mL | –
